In article PMC3815312, “A Set of Engineered Escherichia coli Expression Strains for Selective Isotope and Reactivity Labeling of Amino Acid Side Chains and Flavin Cofactors” (PLoS ONE, 2013):

Biological target: T1, Slr1694 (SyPixD) (Synechocystis sp. PCC 6803, UniProt P74295)
T1 construct: wild type, expressed from pET28a(+)-slr1694 in E. coli CpX strains (CpXribF, CpXdeltaY); N-terminal vector extension (peptide 33-GSEFMSLYR-41 seen by MS); flavin incorporated in vivo; unlabeled, ring-13C6-Tyr or 13C apoprotein
T1 sequence (P74295 1-150): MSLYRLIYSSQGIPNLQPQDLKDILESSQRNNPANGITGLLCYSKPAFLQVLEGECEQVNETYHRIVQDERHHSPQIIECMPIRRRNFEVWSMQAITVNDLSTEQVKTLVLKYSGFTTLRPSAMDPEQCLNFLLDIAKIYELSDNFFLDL
Experiment: light-minus-dark FTIR difference spectroscopy of holoprotein
Format: binding
Details: in H2O; blue light 460 nm; non-covalent flavin incorporated in vivo (unlabeled riboflavin fed); bound flavin species not analysed, FMN and FAD named

Cc1cc2nc3c(=O)[nH]c(=O)nc-3n(C[C@H](O)[C@H](O)[C@H](O)COP(=O)(O)OP(=O)(O)OC[C@H]3O[C@@H](n4cnc5c(N)ncnc54)[C@H](O)[C@@H]3O)c2cc1C [FAD]
light-minus-dark FTIR difference spectroscopy of holoprotein: unlabeled riboflavin was provided in the medium throughout the cultivation procedure for the production of FMN and FAD cofactors
